Experimental data published in patent publication US8987309B2, “Compounds, pharmaceutical compositions and methods of use of 2-aryl pyridylazoles” (The Translational Genomics Research Institute, priority 2009, dated 2015).
Several values for one entry are separate records, joined by “and”; a condition that tells them apart may be missing. Equal values may be shown once.

How the values were obtained:
[1] = test system: PC3; assay: IC50 in tumor cell lines (PC3); format: cell-based; conditions: Table 1; prostate tumor cell line PC3
Method: (§1) Cytotoxicity Assays. Cytotoxicity assays in the mechanism of action studies were performed according to Mosmann (1983), wherein the activity of mitochondrial reductases were measured using 3-(4,5-dimethylthiozol-3-yl)-2,5-diphenyltetrozolium bromide dye. In brief, cells were seeded in 96-well plates and incubated for various times at 37° C. Inhibition of cell growth was measured by adding 3-(4,5-dimethylthiozol-3-yl)-2,5-diphenyltetrozolium bromide dye, and after an additional 4 h of incubation at 37° C., the 96-well plates were centrifuged, and the culture supernatant was removed. DMSO was added to each well to solubilize the formazan crystals, and the optical density was read at 540 nm on a Quant Spectrophotometer (BioTek Instruments, Winooski, Vt.). Cell growth inhibition data are expressed as percentage of survival compared with untreated cells. The IC50 is defined as the drug concentration required to produce 50% growth inhibition. Results are mean S.E.M. (n 3).

[2] = test system: DU145; assay: IC50 in tumor cell lines (DU145); format: cell-based; conditions: Table 1; prostate tumor cell line DU145
Method: as §1

[3] = test system: H460; assay: IC50 in tumor cell lines (H460); format: cell-based; conditions: Table 1; lung tumor cell line H460
Method: as §1

[4] = test system: A549; assay: IC50 in tumor cell lines (A549); format: cell-based; conditions: Table 1; lung tumor cell line A549
Method: as §1

[5] = test system: BxPC3 DPC-4(+/+) and BxPC3 DPC-4(−/−) cells; assay: Cytotoxicity (96-h MTT) in isogenic BxPC3 cell lines; format: cell-based, Human
Method: Cell lines and Culture Conditions. Human pancreatic cancer cell lines MiaPaCa-2 (Yunis et al., 1977), Panc-1 (Lieber et al., 1975), and BxPC3 (Tan et al., 1986) were purchased from the American Type Culture Collection (Manassas, Va.) and cultured in a humidified incubator at 37° C., 5% CO2, in RPMI 1640 medium (CellGro, Manassas, Va.) supplemented with 10% heat-inactivated bovine calf serum, 2 mM L-glutamine, 100 U/ml penicillin, and 100 µg/ml streptomycin (Invitrogen, Carlsbad, Calif.). MiaPaCa-2 (CRL-1420) is an adherent epithelial human pancreatic cancer cell line with a doubling time of approximately 40 h (Yunis et al., 1977). Panc-1 (CRL-1469) is an undifferentiated human pancreatic epithelial cell line with a doubling time of approximately 52 h (Lieber et al., 1975). The BxPC3 cell line DPC-4(−/−) and its isogenic restored wild-type DPC-4(+/+) cell line were developed and cultured as described previously (Wang et al., 2006). In brief, a DPC-4-expressing construct (pMSCVneoDPC-4) was created by amplifying full-length cDNA of DPC-4 using reverse transcriptase-PCR and subcloning into the multiple cloning site of a retroviral vector (pMSCVneo). The DPC-4-expressing construct was cotransfected into the BxPC3 DPC-4(−/−) cells using a packaging cell line, resulting in a cell line that constitutively expresses DPC-4. The expression of DPC-4 was confirmed by Western blotting (Wang et al., 2006).
as §1
Mean±S.E.M., n=3. […] Mean±S.E.M., n=3. […] Mean tumor burden is shown.

[6] = molecular target: PIM-1 (Homo sapiens, UniProt P11309); assay: Initial kinase screening (Amphora), PIM-1; format: biochemical; parameters: assay run by Amphora Discovery Corporation (Durham, N.C.); conditions: 10 μM compound
Method: (§2) Kinase Screening. Initial kinase screening was performed by Amphora Discovery Corporation (Durham, N.C.).

[7] = molecular target: TrkB (Homo sapiens, UniProt Q16620); assay: Initial kinase screening (Amphora), TrkB; format: biochemical; parameters: assay run by Amphora Discovery Corporation (Durham, N.C.); conditions: 10 μM compound
Method: as §2

[8] = molecular target: T1, PDGFRα (Homo sapiens, UniProt P16234); assay: Initial kinase screening (Amphora), PDGFRα; format: biochemical; conditions: 10 μM compound
T1 construct: assay run by Amphora Discovery Corporation (Durham, N.C.)
Method: as §2

[9] = molecular target: T2, PDGFRβ (Homo sapiens, UniProt P09619); assay: Initial kinase screening (Amphora), PDGFRβ; format: biochemical; conditions: 10 μM compound
T2 construct: assay run by Amphora Discovery Corporation (Durham, N.C.)
Method: as §2

[10] = molecular target: T3, CDK2/cyclin A (Homo sapiens, UniProt P24941); assay: Initial kinase screening (Amphora), CDK2/cyclin A; format: biochemical; conditions: 10 μM compound
T3 construct: assay run by Amphora Discovery Corporation (Durham, N.C.)
Method: as §2

[11] = test system: 48 protein kinases; assay: Initial kinase screening (Amphora), panel of 48 protein kinases; format: biochemical; conditions: 10 μM compound
Method: as §2

[12] = Solubility (statement); format: physicochemical

PIM-1, sequence (P11309 whole entry): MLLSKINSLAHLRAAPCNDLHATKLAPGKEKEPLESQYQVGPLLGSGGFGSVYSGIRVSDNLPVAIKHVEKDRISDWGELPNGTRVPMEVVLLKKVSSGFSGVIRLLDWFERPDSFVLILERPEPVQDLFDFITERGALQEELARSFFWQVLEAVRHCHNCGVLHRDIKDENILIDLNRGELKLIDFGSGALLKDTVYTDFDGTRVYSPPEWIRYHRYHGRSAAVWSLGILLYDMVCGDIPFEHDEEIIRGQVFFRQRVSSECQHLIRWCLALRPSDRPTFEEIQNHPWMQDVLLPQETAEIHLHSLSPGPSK
TrkB, sequence (Q16620 32-822): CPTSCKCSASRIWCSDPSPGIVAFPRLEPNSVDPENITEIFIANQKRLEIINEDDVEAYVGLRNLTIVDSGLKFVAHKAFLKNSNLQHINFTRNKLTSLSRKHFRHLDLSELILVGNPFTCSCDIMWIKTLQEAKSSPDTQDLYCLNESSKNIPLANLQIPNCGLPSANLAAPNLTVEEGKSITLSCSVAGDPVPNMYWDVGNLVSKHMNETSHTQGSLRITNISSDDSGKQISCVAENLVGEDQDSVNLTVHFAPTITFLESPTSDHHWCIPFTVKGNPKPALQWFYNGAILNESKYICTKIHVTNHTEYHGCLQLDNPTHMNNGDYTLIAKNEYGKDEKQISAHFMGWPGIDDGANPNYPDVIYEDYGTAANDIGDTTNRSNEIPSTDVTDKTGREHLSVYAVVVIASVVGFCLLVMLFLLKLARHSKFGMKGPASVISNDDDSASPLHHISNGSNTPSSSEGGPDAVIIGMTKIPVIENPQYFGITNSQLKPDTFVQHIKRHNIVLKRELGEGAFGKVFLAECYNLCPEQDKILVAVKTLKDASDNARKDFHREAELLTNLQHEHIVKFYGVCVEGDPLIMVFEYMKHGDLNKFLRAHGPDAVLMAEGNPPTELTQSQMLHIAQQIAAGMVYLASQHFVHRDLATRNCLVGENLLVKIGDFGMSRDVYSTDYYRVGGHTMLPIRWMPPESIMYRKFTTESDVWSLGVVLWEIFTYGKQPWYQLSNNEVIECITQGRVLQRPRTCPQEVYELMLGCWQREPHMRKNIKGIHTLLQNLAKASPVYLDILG
T1 sequence (P16234 24-1089, species assumed): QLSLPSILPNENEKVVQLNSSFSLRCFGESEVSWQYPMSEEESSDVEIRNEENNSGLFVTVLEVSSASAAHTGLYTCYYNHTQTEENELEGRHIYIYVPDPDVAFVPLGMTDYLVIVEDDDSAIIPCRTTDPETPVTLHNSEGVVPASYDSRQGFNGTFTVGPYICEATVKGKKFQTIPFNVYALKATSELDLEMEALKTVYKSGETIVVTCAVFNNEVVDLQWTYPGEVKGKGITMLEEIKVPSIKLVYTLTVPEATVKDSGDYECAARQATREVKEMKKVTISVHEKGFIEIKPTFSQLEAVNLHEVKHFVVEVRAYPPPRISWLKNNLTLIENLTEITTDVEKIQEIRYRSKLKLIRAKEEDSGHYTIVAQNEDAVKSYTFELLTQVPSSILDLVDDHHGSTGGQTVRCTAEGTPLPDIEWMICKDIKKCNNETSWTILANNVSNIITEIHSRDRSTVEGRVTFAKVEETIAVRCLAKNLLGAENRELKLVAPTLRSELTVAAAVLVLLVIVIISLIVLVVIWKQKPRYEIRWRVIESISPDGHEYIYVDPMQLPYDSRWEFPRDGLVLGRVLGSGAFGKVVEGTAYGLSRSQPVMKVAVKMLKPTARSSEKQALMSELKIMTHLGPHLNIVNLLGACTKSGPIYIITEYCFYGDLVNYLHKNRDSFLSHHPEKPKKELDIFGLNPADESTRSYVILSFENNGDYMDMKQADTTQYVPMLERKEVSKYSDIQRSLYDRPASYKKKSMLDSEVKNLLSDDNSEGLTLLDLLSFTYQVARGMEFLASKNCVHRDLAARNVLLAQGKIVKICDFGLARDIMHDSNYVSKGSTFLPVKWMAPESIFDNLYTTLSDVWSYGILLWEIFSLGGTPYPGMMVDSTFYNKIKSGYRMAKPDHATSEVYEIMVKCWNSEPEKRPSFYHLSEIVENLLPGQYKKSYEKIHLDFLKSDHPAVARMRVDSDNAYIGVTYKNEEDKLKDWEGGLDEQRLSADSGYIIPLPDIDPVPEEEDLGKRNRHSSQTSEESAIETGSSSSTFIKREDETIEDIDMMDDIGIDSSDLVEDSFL
T2 sequence (P09619 33-1106, species assumed): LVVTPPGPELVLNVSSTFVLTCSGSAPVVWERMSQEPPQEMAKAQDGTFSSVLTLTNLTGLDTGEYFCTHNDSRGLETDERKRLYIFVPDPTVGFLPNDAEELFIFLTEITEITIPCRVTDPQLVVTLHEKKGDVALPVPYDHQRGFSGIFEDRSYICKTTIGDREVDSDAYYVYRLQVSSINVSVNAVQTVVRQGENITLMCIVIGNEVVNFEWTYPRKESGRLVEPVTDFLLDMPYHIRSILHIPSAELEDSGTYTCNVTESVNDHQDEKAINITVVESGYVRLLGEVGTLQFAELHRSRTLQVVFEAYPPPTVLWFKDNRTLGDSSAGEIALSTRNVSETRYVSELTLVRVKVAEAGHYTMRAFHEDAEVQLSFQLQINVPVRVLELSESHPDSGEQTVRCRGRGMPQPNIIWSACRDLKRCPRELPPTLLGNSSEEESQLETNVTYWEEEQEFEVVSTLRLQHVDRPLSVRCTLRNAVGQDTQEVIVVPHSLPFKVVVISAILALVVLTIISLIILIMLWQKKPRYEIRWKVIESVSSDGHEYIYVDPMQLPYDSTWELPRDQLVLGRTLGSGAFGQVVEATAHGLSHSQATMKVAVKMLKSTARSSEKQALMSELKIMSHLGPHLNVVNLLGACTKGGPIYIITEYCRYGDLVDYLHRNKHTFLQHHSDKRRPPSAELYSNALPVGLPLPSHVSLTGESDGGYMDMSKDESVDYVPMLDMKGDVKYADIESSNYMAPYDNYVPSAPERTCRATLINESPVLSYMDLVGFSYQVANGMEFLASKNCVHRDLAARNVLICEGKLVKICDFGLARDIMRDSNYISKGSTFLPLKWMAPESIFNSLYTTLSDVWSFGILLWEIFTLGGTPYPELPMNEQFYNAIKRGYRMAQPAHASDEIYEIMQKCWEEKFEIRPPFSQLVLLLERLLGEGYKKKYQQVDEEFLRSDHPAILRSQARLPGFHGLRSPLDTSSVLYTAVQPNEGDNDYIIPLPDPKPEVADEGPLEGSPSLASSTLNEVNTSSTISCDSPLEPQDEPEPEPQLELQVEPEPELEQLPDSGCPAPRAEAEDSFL

IC50 [1] [nM]	IC50 [2] [nM]	IC50 [3] [nM]	IC50 [4] [nM]	inhibition of PIM-1 [6] [%]	inhibition of TrkB [7] [%]	inhibition of PDGFRα [8] [%]	inhibition of PDGFRβ [9] [%]	inhibition of CDK2/cyclin A [10] [%]	inhibition of any protein kinases (panel, in words) [11]	solubility (in words) [12]	Structure (SMILES)	potency against BxPC3 cell lines (in words) [5]	selectivity index ([5]; ratio of the IC50 in BxPC3 DPC-4(+/+) to BxPC3 DPC-4(−/−) cells)
9.9	20	50	33	~50	~50	–	–	–	–	–	COc1ccc(-c2cnc(-c3ccncc3-c3ccccc3)o2)cc1 [DPC043]	retained potency	–
–	–	–	–	–	–	59	43	–	–	–	COc1ccc(-c2cnc(-c3ccccc3-c3ccccc3)o2)cc1 [DPC-026]	retained high potency	–
–	–	–	–	–	–	–	–	57	no significant (>50%) inhibition	lack of solubility	COc1ccc(-c2cnc(-c3cccc4c3-c3ccccc3C4=O)o2)cc1 [UA-62784, reference compound]	high potency	2 and 1.9
